{"source": "patent US9241976B2", "about": "“Use of HDL-related molecules to treat and prevent proinflammatory conditions” (THE REGENTS OF THE UNIVERSITY OF CALIFORNIA, priority 2011, dated 2016)", "key": {"[1]": {"test_system": "VEGF, glucose transporter 1, and aldolase-A", "experiment": "HIF-1α target gene mRNA, real-time RT-PCR in OV2008 cells", "type": "cell-based, human", "conditions": "10 μg/ml pretreatment 1 h", "experimental": "Total RNA was extracted from cells by using a PureLink RNA Mini Kit (Invitrogen). The quantity and quality of RNA were assessed by using a SmartSpec 3000 Spectrophotometer (Bio-Rad Laboratories, Hercules, Calif.). cDNA was synthesized by using the High Capacity cDNA Reverse Transcription Kit (Applied Biosystems, Foster City, Calif.) according to the manufacturer's instructions. PCRs were performed by using the CFX96 realtime PCR system (Applied Biosystems). The cycling conditions were as follows: 3 min at 95° C. followed by 40 cycles of 95° C., 10 s; 60° C., 10 s; 72° C., 30 s followed by a final extension at 72° C. for 10 min. Each 25-μl reaction contained 0.4 μg of cDNA, 12.5 μl of SYBR Green qPCR SuperMix (Bio-Rad Laboratories), and 250 nM forward and reverse primers in nuclease-free water. […]"}, "CT26 cells": {"test_system": "CT26 cells", "experiment": "Tumor-load study: CT26 flank tumors in BALB/c mice", "type": "in vivo, mouse", "experimental": "(§1) 6-week-old BALB/c female mice were given a 100 μL subcutaneous injection of 1×10^6 CT26 cells prepared as a single cell suspension in PBS, and the mice were treated with bHDLor BHDLat 10 mg/kg administered subcutaneously (SQ) daily for 15 days. The mice were sacrificed and tumor weights were measured.\n6-week-old BALB/c female mice were given a 100 μl subcutaneous injection of 1×10^6 CT26 cells prepared as a single cell suspension in PBS, treated with peptide at 10 mg/kg by SQ daily for 15 days.\nThe mice were killed and tumor weights were measured. The tumor volumes were measured using the formula V=½ (L×W^2).\nas §1, with “Six-week-old” for “6-week-old”, “[…]” for “μL”, “sc-4F or L-4F at” for “bHDLor BHDLat”, “subcutaneously” for “subcutaneously (SQ)”"}, "HIF-1α": {"test_system": "HIF-1α", "experiment": "HIF-1α protein stability with cycloheximide in OV2008 cells", "type": "cell-based, human", "conditions": "insulin 200 nM, CHX 20 μg/ml, L-4F 10 μg/ml", "experimental": "FIGS. 11A-11B. Effect of L-4F on HIF-1α protein stability in OV2008 cells. FIG. 11A, left, pretreatment of L-4F promotes HIF-1α degradation in OV2008 cells. After an overnight starvation, OV2008 cells were treated with insulin (200 nM) for 3 h, L-4F (10 μg/ml) for 1 h, and CHX (20 μg/ml) for various durations. Cell lysates were collected and subjected to Western blot analysis. […] Right, L-4F treatment promotes HIF-1α degradation in OV2008 cells. After an overnight starvation, OV2008 cells were treated with insulin (200 nM) for 3 h and then treated with L-4F (10 μg/ml) and CHX (20 μg/ml) at the same time. Cell lysates were collected at various time points and subjected to Western blot analysis. […] FIG. 11B, effect of pretreatment of L-4F on proteasome-mediated degradation of HIF-1α in insulin-treated OV2008 cells. After an overnight starvation, OV2008 cells were treated with MG-132 (10 μM) for 3 h, L-4F (10 μg/ml) for 1 h, and insulin (200 nM) for an additional 4 h. Cell lysates were collected and subjected to Western blot analysis.\nWestern blot analyses were performed as described previously (Gao et al., 2011). […]"}, "cyclin D1 and cyclin A": {"test_system": "cyclin D1 and cyclin A", "experiment": "Western blot of cyclin D1 and cyclin A in CT26 cells", "type": "cell-based, mouse", "experimental": "Total cell proteins were collected after treatment in cell lysis buffer containing 0.1 mol/L NaCl, 5 mmol/L EDTA, 50 mmol/L sodium orthovanadate, 1% Triton X-100, and protease inhibitor tablet in 50 mmol/L Tris buffer (pH 7.5). Twenty micrograms of total proteins were separated by SDS-PAGE and transferred onto nitrocellulose membrane and followed by incubation with primary antibody at 4° C. in 5% skim milk and 0.1% Tween-20. Anti-cyclin D1 and anti-cyclin A rabbit polyclonal antibodies were used at 1:1,000 dilution, and anti-b-actin polyclonal antibody was used at 1:2,000 dilution."}, "[2]": {"conditions": "Example 3, 10 mg/kg subcutaneous daily for 15 days"}}, "data": [{"substance": "Ac-DWFKAFYDKVAEKFKEAF-NH2 [L-4F, Ac-D-W-F-K-A-F-Y-D-K-V-A-E-K-F-K-E-A-F-NH2]", "values": [{"measurement": "CoCl2- and insulin-induced increase in mRNA levels of HIF-1α target genes", "setting": "[1]", "value": "abrogated"}, {"measurement": "flank tumor volume", "setting": "CT26 cells; [2]", "value": 313, "unit": "mm^3"}, {"measurement": "flank tumor weight", "setting": "CT26 cells; [2]", "value": 179, "unit": "mg"}, {"measurement": "flank tumor weights", "setting": "CT26 cells; Example 5, 10 mg/kg subcutaneously daily for 15 days", "value": 389, "unit": "mg"}, {"measurement": "degradation of HIF-1α protein", "setting": "HIF-1α", "value": "accelerated the degradation"}, {"measurement": "expression of cyclin D1 and cyclin A", "setting": "cyclin D1 and cyclin A", "value": "significantly lower"}]}]}
